The source of these data is patent US20070157931A1, “System and method for optimized delivery of an aerosol to the respiratory tract” (priority 2005, published 2007).

Holding throughout (type): in vivo
Series [1] is described as follows: Wasted fraction of continuously delivered radioaerosol in ventilated sheep, expiratory filter gamma counting. Particulars: continuous zero flow nebulizer. The protocol:
This study was designed to compare the wasted fraction of ^99mTc-DTPA aerosols delivered continuously with the zero flow nebulizer to control sheep (n=6) and sheep administered 2 mg/kg E. coli endotoxin. This dose of endotoxin in sheep causes a period of intense bronchoconstriction and pulmonary vasoconstriction followed by pulmonary edema. The experimental setup was similar to that illustrated in FIG. 15, except that no scintillation probe was used and isotope waste was measured by counting radioactivity in a filter placed in the expiratory portion of the ventilator tubing using a gamma energy counter. The wasted fraction of aerosol was more than 3-fold higher during endotoxin-induced lung injury with endotoxin [3,836,141 (n=1)] than when the lungs were normal [1,289,102±125,326 (n=6)].

Series [2] in a line: Aerosol deposition and clearance of radiotracers in lungs of ventilated sheep (Hawkeye imaging, gamma counting of lung tissue). Particulars: Hi-Flo MiniHeart nebulizer.
Protocol: The present study was designed to assess aerosol deposition patterns using jet nebulizers and the device of the present disclosure. These studies were conducted in the Vanderbilt University Medical Center Hawkeye scanning facility. Each sheep was surgically instrumented with catheters in a jugular vein and a carotid artery. After allowing several days for the sheep to recuperate from surgery, they were anesthetized, intubated, ventilated, and placed on the GE Hawkeye scanner bed. […] The contents of the syringe were then added to a nebulizer and aerosols generated for 30 minutes during ventilator-assisted inspiration. Planar images were taken every two minutes with anterior and posterior cameras. Nebulization was then halted, and clearance of the radiotracers over two hours was measured with Hawkeye in an identical manner. At the end of the radioisotope clearance image acquisition, a rotational CT image was taken of the sheep thoracic cavity to delineate lung boundaries and chest anatomy. The sheep was sacrificed and its lungs excised. Lungs were placed on grid paper and diced with a rectangular cutting grid. Lung tissue was placed in plastic vials and gamma energy emissions of each isotope measured with a gamma counter.
Series [3] deals with anesthetized sheep. Put plainly: Bronchoconstriction produced by sodium arachidonate aerosol in anesthetized ventilated sheep. To be noted: aerosolized, dose 1.5 grams/50 ml typically diluted 1:3. How it is done:
In anesthetized sheep with either normal lung mechanics or during bronchoconstriction, the effects of phasic aerosol delivery on the amount of radioisotope deposited in the lungs and the amount expired (as collected in a waste filter) were tested. Results were compared to those in which aerosol was delivered continuously. Sheep were anesthetized and ventilated with oxygen-enriched air at a tidal volume of 500 ml and a respiratory rate of 10 breaths per minute. The ventilator setup is illustrated schematically in FIG. 15.
FIGS. 16-18 also illustrate effects of bronchoconstriction produced by an aerosol of sodium arachidonate on aerosol delivery efficiency. These studies were conducted after the control studies discussed above. Arachidonic acid was converted to sodium arachidonate by the procedure of Ogletree and Brigham and was aerosolized (Dose=1.5 grams/50 ml typically diluted 1:3) to cause marked bronchoconstriction and/or decreased lung compliance and thus elevated airway pressure. […] During bronchoconstriction, ^99mTc-DTPA was administered by phasic aerosol delivery while maintaining the arachidonate delivery. […]

For `O=C([O-])CN(CCN(CC(=O)[O-])CC(=O)[O-])CCN(CC(=O)[O-])CC(=O)[O-].[99Tc+4]` [99mTc-DTPA], the “wasted fraction, endotoxin-induced lung injury versus normal lungs” value in series [1] is “more than 3 fold”. Also, the “wasted fraction of aerosol (radioactivity in expiratory filter)” value is given as 3,836,141 in series [1] (endotoxin-induced lung injury, 2 mg/kg E. coli endotoxin, n=1) and 1,289,102±125,326 in series [1] (normal lungs, control sheep, n=6). Moreover, the “tracer remaining in lungs after halting aerosol generation” value in series [2] (2 hours after halting aerosol generation) is on record as “much of the tracer remained”. Moreover, in series [2] (gamma counting of lung tissue samples), the “radioisotope distribution in lung tissue” value was “higher dorsal (towards back) and caudal (towards tail) deposition”.

As for `CCCCC/C=C\C/C=C\C/C=C\C/C=C\CCCC(=O)[O-].[Na+]` [sodium arachidonate], the hypoxemia during bronchoconstriction entry in series [3] was “marked hypoxemia”. The “airway pressure during bronchoconstriction” value in series [3] (within 20 minutes) was 48-50 cm H2O.
